Test results taken from PMC11233931, “Remodeling tumor‐associated macrophage for anti‐cancer effects by rational design of irreversible inhibition of mitogen‐activated protein kinase‐activated protein kinase 2” (MedComm, 2024).

Legend:
Test in all cases: Eurofins kinase selectivity profile against 380 other human recombinant kinases (Table S2)
Assay type in all cases: biochemical
[1] = biological target: T1, 380 human recombinant protein kinases (Homo sapiens, UniProt Q8WXR4); conditions: MYO3B(h), read-out: Inhibition rate
T1 construct: purchased Eurofins (Celle Lévescault)
T1 sequence (Q8WXR4 1-1341): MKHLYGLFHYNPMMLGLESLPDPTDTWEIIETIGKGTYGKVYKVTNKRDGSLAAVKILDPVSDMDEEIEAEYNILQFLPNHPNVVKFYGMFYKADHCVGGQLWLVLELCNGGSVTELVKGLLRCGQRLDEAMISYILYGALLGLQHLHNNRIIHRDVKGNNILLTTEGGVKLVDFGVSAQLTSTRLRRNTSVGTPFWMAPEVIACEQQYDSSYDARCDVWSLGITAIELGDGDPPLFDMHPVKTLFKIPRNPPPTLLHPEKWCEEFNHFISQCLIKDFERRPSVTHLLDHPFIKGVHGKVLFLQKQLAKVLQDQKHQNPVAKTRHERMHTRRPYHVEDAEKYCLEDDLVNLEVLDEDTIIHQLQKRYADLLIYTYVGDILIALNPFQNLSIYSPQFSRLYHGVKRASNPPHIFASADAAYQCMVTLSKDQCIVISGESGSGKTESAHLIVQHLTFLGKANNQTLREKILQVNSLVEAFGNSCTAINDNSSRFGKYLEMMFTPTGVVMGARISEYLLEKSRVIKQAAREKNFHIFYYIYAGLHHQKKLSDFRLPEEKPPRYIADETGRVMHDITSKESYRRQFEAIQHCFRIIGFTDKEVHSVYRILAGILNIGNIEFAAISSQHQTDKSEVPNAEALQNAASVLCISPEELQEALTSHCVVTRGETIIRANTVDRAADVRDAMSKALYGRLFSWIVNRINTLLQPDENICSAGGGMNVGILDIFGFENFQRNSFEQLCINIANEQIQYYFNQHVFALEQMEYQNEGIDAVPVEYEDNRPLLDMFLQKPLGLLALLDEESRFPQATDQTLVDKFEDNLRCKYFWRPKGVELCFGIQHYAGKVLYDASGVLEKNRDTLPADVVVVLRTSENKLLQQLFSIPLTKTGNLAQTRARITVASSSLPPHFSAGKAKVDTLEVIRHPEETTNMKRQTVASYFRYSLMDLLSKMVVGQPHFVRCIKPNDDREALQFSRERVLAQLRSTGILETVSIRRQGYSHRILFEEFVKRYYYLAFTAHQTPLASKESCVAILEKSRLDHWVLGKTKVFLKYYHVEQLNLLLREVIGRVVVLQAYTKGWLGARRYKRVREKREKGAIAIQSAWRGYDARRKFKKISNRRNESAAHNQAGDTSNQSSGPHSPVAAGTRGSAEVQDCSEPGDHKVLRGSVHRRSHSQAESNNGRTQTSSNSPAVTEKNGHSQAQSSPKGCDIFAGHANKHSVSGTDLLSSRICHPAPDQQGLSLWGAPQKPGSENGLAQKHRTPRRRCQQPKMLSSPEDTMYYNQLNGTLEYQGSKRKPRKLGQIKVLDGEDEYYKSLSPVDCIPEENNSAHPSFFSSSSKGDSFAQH
In short: (§1)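 Values come from a contract kinase-profiling service that tested the compound at multiple concentrations across 380 recombinant human kinases, as an off-target check against the MK2 activity.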

[2] = biological target: T2, 380 human recombinant protein kinases (Homo sapiens, UniProt P54760); conditions: EphB4(h), read-out: Inhibition rate
T2 construct: purchased Eurofins (Celle Lévescault)
T2 sequence (P54760 16-987): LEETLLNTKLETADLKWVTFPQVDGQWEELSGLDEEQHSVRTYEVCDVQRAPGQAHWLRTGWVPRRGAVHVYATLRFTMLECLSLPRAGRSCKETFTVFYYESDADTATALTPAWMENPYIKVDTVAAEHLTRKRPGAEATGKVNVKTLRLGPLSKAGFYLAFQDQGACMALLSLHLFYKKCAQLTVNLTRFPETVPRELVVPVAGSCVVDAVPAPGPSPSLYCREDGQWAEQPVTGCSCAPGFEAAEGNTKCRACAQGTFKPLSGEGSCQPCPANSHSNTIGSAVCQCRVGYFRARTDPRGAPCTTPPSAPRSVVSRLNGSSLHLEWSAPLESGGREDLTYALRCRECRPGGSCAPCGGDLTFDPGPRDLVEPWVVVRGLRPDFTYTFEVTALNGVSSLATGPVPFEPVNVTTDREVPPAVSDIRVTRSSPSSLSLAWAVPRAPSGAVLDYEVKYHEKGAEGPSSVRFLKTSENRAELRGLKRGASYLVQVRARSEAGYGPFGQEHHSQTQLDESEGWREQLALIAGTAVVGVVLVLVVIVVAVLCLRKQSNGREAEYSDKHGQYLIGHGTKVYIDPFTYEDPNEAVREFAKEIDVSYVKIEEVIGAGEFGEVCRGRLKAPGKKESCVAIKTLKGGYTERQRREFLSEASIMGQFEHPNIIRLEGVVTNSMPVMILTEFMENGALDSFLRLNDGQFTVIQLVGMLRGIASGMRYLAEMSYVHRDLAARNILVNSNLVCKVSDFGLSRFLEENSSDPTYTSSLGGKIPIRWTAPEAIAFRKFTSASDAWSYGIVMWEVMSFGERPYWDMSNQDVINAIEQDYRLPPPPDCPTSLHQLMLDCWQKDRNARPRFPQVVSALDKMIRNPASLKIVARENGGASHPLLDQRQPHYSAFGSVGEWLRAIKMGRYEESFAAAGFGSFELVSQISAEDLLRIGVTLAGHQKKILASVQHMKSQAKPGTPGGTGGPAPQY
In short: as §1

[3] = biological target: T3, 380 human recombinant protein kinases (Homo sapiens, UniProt P09769); conditions: Fgr(h), read-out: Inhibition rate
T3 construct: purchased Eurofins (Celle Lévescault)
In short: as §1

T3 sequence (P09769 whole entry): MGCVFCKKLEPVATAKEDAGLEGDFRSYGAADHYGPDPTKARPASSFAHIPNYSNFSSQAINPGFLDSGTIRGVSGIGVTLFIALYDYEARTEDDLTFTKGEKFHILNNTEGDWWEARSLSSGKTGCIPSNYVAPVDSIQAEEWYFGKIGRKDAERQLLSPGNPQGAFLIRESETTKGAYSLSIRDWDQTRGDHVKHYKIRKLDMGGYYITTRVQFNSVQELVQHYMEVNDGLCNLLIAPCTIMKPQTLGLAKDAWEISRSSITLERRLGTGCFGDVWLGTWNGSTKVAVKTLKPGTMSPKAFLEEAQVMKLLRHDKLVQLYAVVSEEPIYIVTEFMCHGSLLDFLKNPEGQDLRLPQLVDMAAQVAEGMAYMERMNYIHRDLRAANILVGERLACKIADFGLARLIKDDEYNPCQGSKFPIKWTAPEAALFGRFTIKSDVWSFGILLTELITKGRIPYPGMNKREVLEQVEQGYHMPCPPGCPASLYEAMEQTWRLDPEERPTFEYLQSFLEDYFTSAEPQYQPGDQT

C=CC(=O)Nc1cc(-c2cc(-c3cc4c([nH]3)CCNC4=O)ccn2)ccc1OC(F)(F)F [compound 11] showed an inhibition at 0.01 µM ([1]; 10 nM) of 3%, an inhibition at 0.1 µM ([1]; 100 nM) of 4% and an inhibition at 1 µM ([1]; 1000 nM) of 16%. The inhibition at 0.01 µM ([2]; 10 nM) was -4%, the inhibition at 0.1 µM ([2]; 100 nM) was -15% and the inhibition at 1 µM ([2]; 1000 nM) was -4%. The inhibition at 0.01 µM ([3]; 10 nM) was 1%, the inhibition at 0.1 µM ([3]; 100 nM) was 0% and the inhibition at 1 µM ([3]; 1000 nM) was 0%.
